In patent publication US20200172486A1, “PYRIDONE COMPOUNDS AND AGRICULTURAL AND HORTICULTURAL FUNGICIDES CONTAINING THE SAME AS ACTIVE INGREDIENTS” (MITSUI CHEMICALS AGRO, INC., priority 2017, published 2020):

Legend:
[1] = system: cucumber anthracnose fungi (Colletotrichum orbiculare); test: Test Example H: cucumber anthracnose, spray test on potted cucumber plants; details: in Cucumis sativus, read-out: control value
[2] = system: gray mold fungi (Botrytis cinerea); test: Test Example B: tomato gray mold, spray test on potted tomato plants; details: in Solanum lycopersicum, read-out: control value
Text: Control value=100{1−(n/3)}
Test plants (tomato variety: Oogata Fukuju) were cultivated until three to five first leaves (true leaves) appeared after the sowing of seeds.

[3] = system: cabbage alternaria sooty spot fungi (Alternaia brassicicola); test: Test Example C: cabbage alternaria sooty spot, spray test on potted cabbage plants; details: in Brassica oleracea, read-out: control value
Text: Control value=100{1−(n/3)}
Test plants (cabbage variety: Shikidori) were cultivated until the cotyledons extended after the sowing of seeds.

| Structure (SMILES) | pest or weed control at 250 ppm [1] [%] | pest or weed control at 250 ppm [2] [%] | pest or weed control at 250 ppm [3] [%] |
| --- | --- | --- | --- |
| CCNc1cc(Cl)c(=O)n(CC)c1-c1ccc(F)cc1 [Compound 20, 3-chloro-1-ethyl-5-(ethylamino)-6-(4-fluorophenyl)pyridin-2(1H)-one] | > 50 |  |  |
| CCn1c(-c2c(F)cccc2F)c(N2CCOCC2)cc(Cl)c1=O [compound 426, 3-chloro-6-(2,6-difluorophenyl)-1-ethyl-5-morpholinopyridin-2(1H)-one] | > 50 | > 50 | > 50 |
| CCn1c(-c2c(F)cccc2F)c(N=CN2CCCC2)cc(Cl)c1=O [Compound 8, 3-chloro-6-(2,6-difluorophenyl)-1-ethyl-5-((pyrrolidin-1-yl-methylene)amino)pyridin-2(1H)-one] | > 50 | > 50 | > 50 |
| CCN(C)c1cc(Cl)c(=O)n(CC)c1-c1c(F)cccc1F [Compound 5, 3-chloro-6-(2,6-difluorophenyl)-1-ethyl-5-(ethyl(methyl)-amino)pyridin-2(1H)-one] | > 50 | > 50 | > 50 |
| CCn1c(-c2c(F)cccc2F)c(N(C)C(=O)OC(C)(C)C)cc(Cl)c1=O [Compound 2, tert-butyl (5-chloro-2-(2,6-difluorophenyl)-1-ethyl-6-oxo-1,6-dihydropyridin-3-yl)(methyl)carbamate] |  |  | > 50 |
| CCn1c(-c2ccc(F)cc2Cl)c(N2CCCCC2)cc(Cl)c1=O [Compound 44, 3-chloro-6-(2-chloro-4-fluorophenyl)-1-ethyl-5-(piperidin-1-yl)pyridin-2(1H)-one] | > 50 | > 50 | > 50 |
| CCN(C(=O)OC(C)(C)C)c1cc(Cl)c(=O)n(CC)c1-c1ccc(F)cc1 [Compound 17, tert-butyl (5-chloro-1-ethyl-2-(4-fluorophenyl)-6-oxo-1,6-dihydropyridin-3-yl)(ethyl)carbamate] | > 50 |  |  |
| CCn1c(-c2ccc(F)cc2Cl)c(NC(=O)OC(C)(C)C)cc(Cl)c1=O [Compound 27, tert-butyl (5-chloro-2-(2-chloro-4-fluorophenyl)-1-ethyl-6-oxo-1,6-dihydropyridin-3-yl)carbamate] |  | > 50 |  |
| CCn1c(-c2c(F)cccc2F)c(NC)cc(Cl)c1=O [Compound 3, 3-chloro-6-(2,6-difluorophenyl)-1-ethyl-5-(methylamino)-pyridin-2(1H)-one] | > 50 |  | > 50 |
| CCn1c(-c2c(F)cccc2F)c(Nc2ccccc2)cc(Cl)c1=O [compound 317, 3-chloro-6-(2,6-difluorophenyl)-1-ethyl-5-(phenylamino)pyridin-2(1H)-one] | > 50 | > 50 | > 50 |
| CCn1c(-c2c(F)cccc2F)c(N)cc(Cl)c1=O [Compound 59, 5-amino-3-chloro-6-(2,6-difluorophenyl)-1-ethylpyridin-2(1H)-one] | > 50 |  |  |
| CCn1c(-c2ccc(F)cc2Cl)c(N)cc(Cl)c1=O [Compound 32, 5-amino-3-chloro-6-(2-chloro-4-fluorophenyl)-1-ethylpyridin-2(1H)-one] | > 50 |  |  |
| CCn1c(-c2ccc(F)cc2Cl)c(N2CCC(C)CC2)cc(Cl)c1=O [compound 365, 3-chloro-6-(2-chloro-4-fluorophenyl)-1-ethyl-5-(4-methyl-piperidin-1-yl)pyridin-2(1H)-one] | > 50 | > 50 | > 50 |
| CCn1c(-c2c(F)cccc2F)c(N(C)C)cc(Cl)c1=O [Compound 4, 3-chloro-6-(2,6-difluorophenyl)-5-(dimethylamino)-1-ethyl-pyridin-2(1H)-one] | > 50 | > 50 | > 50 |
| CCn1c(-c2c(F)cccc2F)c(NC(=O)OC(C)(C)C)cc(Cl)c1=O [Compound 1, tert-butyl (5-chloro-2-(2,6-difluorophenyl)-1-ethyl-6-oxo-1,6-dihydropyridin-3-yl)carbamate] |  |  | > 50 |
